Assay [1] deals with Sigma non-opioid intracellular receptor 1 (Homo sapiens, UniProt Q99720). As to the kind of experiment: GPCRScan assay: inhibition of Sigma 1. Set-up: radioligand conc. used [nm] 4.0 – 5.0, parental cells HEKT.
The next assay concerns the target Histamine H2 receptor (Homo sapiens, UniProt P25021). The following applies: Compound concentration 10.0 uM.
In another assay the target is D(3) dopamine receptor (Homo sapiens, UniProt P35462). As to the kind of experiment: GPCRScan assay: inhibition of D3. Set-up: radioligand conc. used [nm] 0.5 – 1.8, parental cells HEKT.
The target in assay [2] is Macrophage colony-stimulating factor 1 receptor (Homo sapiens) (UniProt P07333). The settings on record: Compound concentration 1000.0 nM.
For assay [3], the target named is Serine/threonine-protein kinase SIK2 (Homo sapiens) (UniProt Q9H0K1). The following applies: Compound concentration 1000.0 nM.
Assay [4] has as its target MAP/microtubule affinity-regulating kinase 3 (Homo sapiens) (UniProt P27448). The settings on record: Compound concentration 1000.0 nM.
The target in assay [5] is Ribosomal protein S6 kinase alpha-4 (Homo sapiens) (UniProt O75676). The settings on record: Compound concentration 1000.0 nM.
Assay [6] deals with Serine/threonine-protein kinase haspin (Homo sapiens) (UniProt Q8TF76). The following applies: Compound concentration 1000.0 nM.
The target of assay [7] is Myosin light chain kinase, smooth muscle (Homo sapiens) (UniProt Q15746). The following applies: Compound concentration 1000.0 nM.
Chain of Myosin light chain kinase, smooth muscle (Homo sapiens) (Q15746 whole entry): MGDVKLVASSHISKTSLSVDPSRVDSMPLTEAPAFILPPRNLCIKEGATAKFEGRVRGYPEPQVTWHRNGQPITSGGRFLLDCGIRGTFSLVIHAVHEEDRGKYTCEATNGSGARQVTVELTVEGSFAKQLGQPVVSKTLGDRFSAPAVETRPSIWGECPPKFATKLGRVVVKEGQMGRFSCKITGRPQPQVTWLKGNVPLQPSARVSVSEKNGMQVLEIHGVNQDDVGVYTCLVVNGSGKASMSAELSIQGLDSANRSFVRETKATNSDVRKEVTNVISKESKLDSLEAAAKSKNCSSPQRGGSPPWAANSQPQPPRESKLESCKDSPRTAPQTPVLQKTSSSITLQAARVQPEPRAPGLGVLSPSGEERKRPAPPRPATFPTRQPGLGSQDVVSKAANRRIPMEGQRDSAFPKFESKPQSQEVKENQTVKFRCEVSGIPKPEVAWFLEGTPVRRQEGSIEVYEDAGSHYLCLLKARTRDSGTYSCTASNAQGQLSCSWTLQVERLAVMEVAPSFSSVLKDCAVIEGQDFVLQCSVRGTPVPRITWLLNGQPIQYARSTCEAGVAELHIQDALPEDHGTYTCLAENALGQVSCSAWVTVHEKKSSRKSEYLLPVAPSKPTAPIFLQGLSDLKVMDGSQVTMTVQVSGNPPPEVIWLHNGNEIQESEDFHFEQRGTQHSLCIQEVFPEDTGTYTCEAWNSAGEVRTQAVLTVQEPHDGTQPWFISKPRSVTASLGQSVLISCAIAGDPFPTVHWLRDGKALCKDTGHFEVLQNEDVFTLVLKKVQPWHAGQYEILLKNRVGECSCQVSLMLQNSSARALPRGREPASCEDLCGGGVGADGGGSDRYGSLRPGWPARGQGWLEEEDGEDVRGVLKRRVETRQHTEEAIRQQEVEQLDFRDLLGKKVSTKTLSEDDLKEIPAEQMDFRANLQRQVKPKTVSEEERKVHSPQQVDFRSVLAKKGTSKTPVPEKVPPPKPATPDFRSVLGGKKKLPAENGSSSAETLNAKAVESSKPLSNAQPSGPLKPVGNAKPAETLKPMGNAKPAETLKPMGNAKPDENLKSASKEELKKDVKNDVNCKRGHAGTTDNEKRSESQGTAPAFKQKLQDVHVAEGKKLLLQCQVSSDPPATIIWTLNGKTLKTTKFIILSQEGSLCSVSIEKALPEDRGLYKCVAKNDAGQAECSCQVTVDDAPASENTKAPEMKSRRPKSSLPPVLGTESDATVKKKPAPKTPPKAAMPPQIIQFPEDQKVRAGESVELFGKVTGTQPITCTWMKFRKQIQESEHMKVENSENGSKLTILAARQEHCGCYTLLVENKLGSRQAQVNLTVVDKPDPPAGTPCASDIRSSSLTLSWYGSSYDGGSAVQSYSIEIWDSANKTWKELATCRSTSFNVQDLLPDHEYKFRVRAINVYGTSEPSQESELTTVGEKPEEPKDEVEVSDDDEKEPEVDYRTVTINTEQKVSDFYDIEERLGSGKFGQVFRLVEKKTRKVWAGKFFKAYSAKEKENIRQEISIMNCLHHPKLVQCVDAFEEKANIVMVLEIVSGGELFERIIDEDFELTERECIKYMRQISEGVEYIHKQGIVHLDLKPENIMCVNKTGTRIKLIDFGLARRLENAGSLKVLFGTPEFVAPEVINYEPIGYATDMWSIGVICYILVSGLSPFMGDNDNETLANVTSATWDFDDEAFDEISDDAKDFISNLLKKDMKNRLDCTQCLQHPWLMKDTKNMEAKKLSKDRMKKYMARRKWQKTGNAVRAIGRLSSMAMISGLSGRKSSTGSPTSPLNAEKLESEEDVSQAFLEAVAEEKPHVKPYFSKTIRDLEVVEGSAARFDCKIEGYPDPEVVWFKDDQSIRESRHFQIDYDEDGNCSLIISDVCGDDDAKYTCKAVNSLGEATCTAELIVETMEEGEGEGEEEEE
The target in assay [8] is Cyclin-dependent kinase 4 (Homo sapiens) (UniProt P11802). The settings on record: Compound concentration 1000.0 nM.
Assay [9] concerns Mast/stem cell growth factor receptor Kit (Homo sapiens), P10721 [V559D,T670I]. The settings on record: Compound concentration 1000.0 nM.
Assay [10] has as its target Cyclin-dependent kinase 7 (Homo sapiens) (UniProt P50613). The following applies: Compound concentration 1000.0 nM.
The target of assay [11] is Aurora kinase B (Homo sapiens) (UniProt Q96GD4). The following applies: Compound concentration 1000.0 nM.
In assay [12] the target is Mitogen-activated protein kinase kinase kinase 4 (Homo sapiens) (UniProt Q9Y6R4). The settings on record: Compound concentration 1000.0 nM.
Chain of Mitogen-activated protein kinase kinase kinase 4 (Homo sapiens) (Q9Y6R4 whole entry): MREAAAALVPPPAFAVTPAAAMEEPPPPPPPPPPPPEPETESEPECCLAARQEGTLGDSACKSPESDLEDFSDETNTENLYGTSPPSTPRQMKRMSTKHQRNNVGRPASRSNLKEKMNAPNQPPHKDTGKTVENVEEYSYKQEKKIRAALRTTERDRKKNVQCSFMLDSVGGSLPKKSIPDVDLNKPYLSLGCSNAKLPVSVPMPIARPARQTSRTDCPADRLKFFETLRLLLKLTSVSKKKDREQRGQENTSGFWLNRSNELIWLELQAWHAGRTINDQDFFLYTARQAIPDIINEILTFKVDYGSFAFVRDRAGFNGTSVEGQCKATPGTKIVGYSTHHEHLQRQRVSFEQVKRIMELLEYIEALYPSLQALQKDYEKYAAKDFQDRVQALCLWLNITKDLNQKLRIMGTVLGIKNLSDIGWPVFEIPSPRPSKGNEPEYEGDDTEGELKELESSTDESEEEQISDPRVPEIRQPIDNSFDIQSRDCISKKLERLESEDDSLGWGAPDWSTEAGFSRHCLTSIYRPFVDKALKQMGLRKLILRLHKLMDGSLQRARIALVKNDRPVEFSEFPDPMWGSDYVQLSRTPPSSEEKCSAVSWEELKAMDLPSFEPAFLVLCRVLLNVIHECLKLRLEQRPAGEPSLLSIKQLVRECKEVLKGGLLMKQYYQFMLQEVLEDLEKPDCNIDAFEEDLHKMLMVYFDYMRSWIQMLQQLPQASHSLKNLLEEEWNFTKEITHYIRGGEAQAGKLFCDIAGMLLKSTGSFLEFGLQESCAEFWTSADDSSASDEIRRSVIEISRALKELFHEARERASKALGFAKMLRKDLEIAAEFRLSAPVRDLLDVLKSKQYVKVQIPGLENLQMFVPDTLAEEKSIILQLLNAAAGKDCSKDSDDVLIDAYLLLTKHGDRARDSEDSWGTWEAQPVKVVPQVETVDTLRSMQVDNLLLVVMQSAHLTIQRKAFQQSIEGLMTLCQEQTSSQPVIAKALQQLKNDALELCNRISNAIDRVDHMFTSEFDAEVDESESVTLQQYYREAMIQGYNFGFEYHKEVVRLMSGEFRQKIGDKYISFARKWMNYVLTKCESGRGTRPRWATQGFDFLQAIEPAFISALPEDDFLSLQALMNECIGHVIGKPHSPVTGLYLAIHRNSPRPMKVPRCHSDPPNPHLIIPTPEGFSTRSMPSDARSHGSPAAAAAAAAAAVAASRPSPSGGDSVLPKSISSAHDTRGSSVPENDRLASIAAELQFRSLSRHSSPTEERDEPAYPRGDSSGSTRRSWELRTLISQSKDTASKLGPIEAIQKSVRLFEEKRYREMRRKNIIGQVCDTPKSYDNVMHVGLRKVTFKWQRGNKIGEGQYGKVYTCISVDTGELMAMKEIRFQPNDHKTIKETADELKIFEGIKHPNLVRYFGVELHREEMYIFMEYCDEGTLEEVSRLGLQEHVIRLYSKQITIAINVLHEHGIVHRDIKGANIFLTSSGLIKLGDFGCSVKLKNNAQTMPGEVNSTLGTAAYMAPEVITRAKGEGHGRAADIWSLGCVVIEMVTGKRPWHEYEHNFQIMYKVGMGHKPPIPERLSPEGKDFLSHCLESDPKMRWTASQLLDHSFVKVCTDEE
Assay [13] has as its target Serine/threonine-protein kinase BRSK1 (Homo sapiens) (UniProt Q8TDC3). The settings on record: Compound concentration 1000.0 nM.
The target in assay [14] is Mitogen-activated protein kinase kinase kinase 3 (Homo sapiens) (UniProt Q99759). The settings on record: Compound concentration 1000.0 nM.
The target in assay [15] is Proto-oncogene tyrosine-protein kinase Src (Homo sapiens) (UniProt P12931). The following applies: Compound concentration 1000.0 nM.
In assay [16] the test system is Tyrosine-protein kinase ABL1 (Homo sapiens), P00519 [M351T]. The following applies: Compound concentration 1000.0 nM.
Assay [17] deals with SRSF protein kinase 2 (Homo sapiens) (UniProt P78362). The following applies: Compound concentration 1000.0 nM.
The target of assay [18] is Eukaryotic translation initiation factor 2-alpha kinase 1 (Homo sapiens) (UniProt Q9BQI3). The settings on record: Compound concentration 1000.0 nM.
In assay [19] the target is Homeodomain-interacting protein kinase 2 (Homo sapiens) (UniProt Q9H2X6). The following applies: Compound concentration 1000.0 nM.
The target in assay [20] is Epidermal growth factor receptor (Homo sapiens) (UniProt P00533). The settings on record: Compound concentration 1000.0 nM.
In assay [21] the target is Myosin-IIIa (Homo sapiens) (UniProt Q8NEV4). The following applies: Compound concentration 1000.0 nM.
Chain of Myosin-IIIa (Homo sapiens) (Q8NEV4 whole entry): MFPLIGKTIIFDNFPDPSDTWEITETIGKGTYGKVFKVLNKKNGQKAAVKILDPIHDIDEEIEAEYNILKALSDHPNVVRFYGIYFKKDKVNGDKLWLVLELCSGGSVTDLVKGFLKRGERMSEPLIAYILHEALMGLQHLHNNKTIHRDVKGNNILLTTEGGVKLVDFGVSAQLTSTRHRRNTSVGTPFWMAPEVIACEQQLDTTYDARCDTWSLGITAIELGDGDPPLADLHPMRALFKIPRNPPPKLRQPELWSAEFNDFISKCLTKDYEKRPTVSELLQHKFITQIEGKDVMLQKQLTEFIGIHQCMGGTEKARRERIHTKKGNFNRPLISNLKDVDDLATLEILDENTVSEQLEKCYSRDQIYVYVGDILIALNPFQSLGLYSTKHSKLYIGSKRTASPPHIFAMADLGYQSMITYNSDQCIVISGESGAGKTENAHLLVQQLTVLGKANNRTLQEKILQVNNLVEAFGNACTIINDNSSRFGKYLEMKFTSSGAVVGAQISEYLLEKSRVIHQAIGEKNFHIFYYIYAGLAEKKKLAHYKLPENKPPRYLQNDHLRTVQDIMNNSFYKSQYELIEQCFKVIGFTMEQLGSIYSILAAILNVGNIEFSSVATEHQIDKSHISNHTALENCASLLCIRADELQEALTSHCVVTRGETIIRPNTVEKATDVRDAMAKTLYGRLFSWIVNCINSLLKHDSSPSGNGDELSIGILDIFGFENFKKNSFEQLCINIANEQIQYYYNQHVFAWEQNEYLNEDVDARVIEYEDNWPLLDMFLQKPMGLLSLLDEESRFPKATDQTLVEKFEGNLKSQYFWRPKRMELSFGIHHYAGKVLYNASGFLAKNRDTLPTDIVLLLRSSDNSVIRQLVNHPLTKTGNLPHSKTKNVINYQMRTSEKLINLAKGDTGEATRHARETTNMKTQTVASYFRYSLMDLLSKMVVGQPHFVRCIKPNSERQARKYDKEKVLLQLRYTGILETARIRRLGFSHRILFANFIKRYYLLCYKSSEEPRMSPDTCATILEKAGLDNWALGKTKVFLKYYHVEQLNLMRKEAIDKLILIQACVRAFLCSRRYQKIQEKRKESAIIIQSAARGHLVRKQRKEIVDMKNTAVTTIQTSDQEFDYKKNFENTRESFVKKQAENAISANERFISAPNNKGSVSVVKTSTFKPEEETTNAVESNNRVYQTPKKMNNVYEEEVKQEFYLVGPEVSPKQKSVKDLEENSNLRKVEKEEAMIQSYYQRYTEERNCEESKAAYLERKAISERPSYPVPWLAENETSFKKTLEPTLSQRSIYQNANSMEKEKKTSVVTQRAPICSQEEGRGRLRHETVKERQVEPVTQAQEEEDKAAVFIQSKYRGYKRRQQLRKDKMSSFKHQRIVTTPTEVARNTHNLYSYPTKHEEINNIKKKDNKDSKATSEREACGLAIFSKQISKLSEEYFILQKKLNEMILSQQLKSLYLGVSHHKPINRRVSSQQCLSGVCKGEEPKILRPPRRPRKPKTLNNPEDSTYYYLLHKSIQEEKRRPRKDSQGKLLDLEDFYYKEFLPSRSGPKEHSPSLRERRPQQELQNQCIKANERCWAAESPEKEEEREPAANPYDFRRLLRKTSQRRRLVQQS
Assay [22] deals with Non-receptor tyrosine-protein kinase TNK1 (Homo sapiens) (UniProt Q13470). The settings on record: Compound concentration 1000.0 nM.
Assay [23] concerns the target Phosphatidylinositol 4-phosphate 3-kinase C2 domain-containing subunit beta (Homo sapiens) (UniProt O00750). The settings on record: Compound concentration 1000.0 nM.
The target of assay [24] is Vascular endothelial growth factor receptor 1 (Homo sapiens) (UniProt P17948). The settings on record: Compound concentration 1000.0 nM.
Assay [25] concerns the target Atypical kinase COQ8A, mitochondrial (Homo sapiens) (UniProt Q8NI60). The settings on record: Compound concentration 1000.0 nM.
For assay [26], the target named is Serine/threonine-protein kinase ULK1 (Homo sapiens) (UniProt O75385). The settings on record: Compound concentration 1000.0 nM.
Assay [27] deals with Receptor-type tyrosine-protein kinase FLT3 (Homo sapiens), P36888 [R834Q]. The following applies: Compound concentration 1000.0 nM.
Assay [28] has as its target Peripheral plasma membrane protein CASK (Homo sapiens) (UniProt O14936). The following applies: Compound concentration 1000.0 nM.
Assay [29] deals with Non-receptor tyrosine-protein kinase TYK2 (Homo sapiens) (UniProt P29597). The following applies: Compound concentration 1000.0 nM.
The target in assay [30] is Receptor-interacting serine/threonine-protein kinase 4 (Homo sapiens) (UniProt P57078). The settings on record: Compound concentration 1000.0 nM.
Assay [31] addresses Serine/threonine-protein kinase VRK2 (Homo sapiens) (UniProt Q86Y07). The settings on record: Compound concentration 1000.0 nM.
The species named for the next assay is Rattus norvegicus. The following applies: Compound concentration 10.0 uM.
The target of assay [32] is Leucine-rich repeat serine/threonine-protein kinase 2 (Homo sapiens) (UniProt Q5S007). The following applies: Compound concentration 1000.0 nM.
Assay [33] deals with Homeodomain-interacting protein kinase 4 (Homo sapiens) (UniProt Q8NE63). The settings on record: Compound concentration 1000.0 nM.
Assay [34] has as its target Protein-tyrosine kinase 6 (Homo sapiens) (UniProt Q13882). The following applies: Compound concentration 1000.0 nM.
The target of assay [35] is Dual specificity mitogen-activated protein kinase kinase 1 (Homo sapiens) (UniProt Q02750). The settings on record: Compound concentration 1000.0 nM.
Assay [36] deals with Protein-tyrosine kinase 2-beta (Homo sapiens) (UniProt Q14289). The following applies: Compound concentration 1000.0 nM.
Assay [37] has as its target Tyrosine-protein kinase FRK (Homo sapiens) (UniProt P42685). The following applies: Compound concentration 1000.0 nM.
For assay [38], the target named is Serine/threonine-protein kinase mTOR (Homo sapiens) (UniProt P42345). The settings on record: Compound concentration 1000.0 nM.
Assay [39] deals with Interleukin-1 receptor-associated kinase 3 (Homo sapiens) (UniProt Q9Y616). The settings on record: Compound concentration 1000.0 nM.
Assay [40] deals with Receptor tyrosine-protein kinase erbB-4 (Homo sapiens) (UniProt Q15303). The settings on record: Compound concentration 1000.0 nM.
The target of assay [41] is Mitogen-activated protein kinase kinase kinase 12 (Homo sapiens) (UniProt Q12852). The following applies: Compound concentration 1000.0 nM.
The target in assay [42] is Insulin-like growth factor 1 receptor (Homo sapiens) (UniProt P08069). The settings on record: Compound concentration 1000.0 nM.
Assay [43] concerns Tyrosine-protein kinase ABL1 (Homo sapiens), P00519 [Q252H]. The following applies: Compound concentration 1000.0 nM.

The term Ki denotes a measure of affinity in units of concentration, obtained from inhibition or displacement. In general, inhibition refers to the share of the control response that was lost under treatment. For `CC(C)(C)OC(=O)N1CCCC1CNC1CCC(c2cc(F)ccc2F)(S(=O)(=O)c2ccc(Cl)cc2)CC1` (stereo unspecified) [GSI-NC], the Ki in [1] amounted to 223 nM; at D(3) dopamine receptor it was 710 nM. The inhibition at Histamine H2 receptor is 53.1%.

In the case of `O=S(=O)(NC1CCC(c2cc(F)ccc2F)(S(=O)(=O)c2ccc(Cl)cc2)CC1)C(F)(F)F` (stereo unspecified) [MRK-560], the residual activity was 100% in assay [2]; 100% in assay [3]; 79% in assay [4]; 100% in assay [5]; 69% in assay [6]; 100% in assay [7]. For the same molecule, the residual activity in [8] is 81%; in [9], 100%; in assay [10], 100%; in assay [11], 100%; in assay [12] it was 99%; in [13] it was 92%. The residual activity is 100% in assay [14]; 100% in assay [15]; 100% in assay [16]; 65% in assay [17]; 100% in assay [18]; 81% in [19]. For the same molecule, the residual activity in assay [20] was 100%; in assay [21], 91%; in assay [22], 98%; in [23] it was 100%; in assay [24] it was 86%; in [25], 99%. The residual activity was 84% in assay [26]; 100% in [27]; 68% in assay [28]; 86% in assay [29]; 91% in [30]; 100% in [31]. Further, the residual activity in assay [32] is 96%; in assay [33], 74%; in assay [34], 95%; in assay [35], 100%; in assay [36], 100%; in assay [37] it was 100%. Also, the residual activity in assay [38] is 94%; in [39], 98%; in assay [40], 94%; in [41], 100%; in [42], 100%; in assay [43], 95%. The inhibition in the assay listed under Rattus norvegicus is 37.2%.

For the origin of these results see ChEMBL document CHEMBL4507288 (2021).
